In ChEMBL document CHEMBL1201862, “PubChem BioAssay data set” (2004):
Activity calls are given as the source filed them.

Columns and labels:
[1] = target: ADP-ribosylation factor GTPase-activating protein 1 (Rattus norvegicus, UniProt Q62848); experiment: Fluorescence polarization-based biochemical high throughput dose response screening assay to identify inhibitors of ADP-ribosylation factor GTPase activating protein 1 (ARFGAP1).; format: functional
Mu-type opioid receptor = Mu-type opioid receptor (Homo sapiens, UniProt P35372); format: functional, cell-based;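 also: U2OS cells with beta-arrestin recruitment to OPRM1 by beta-gal complementation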
[2] = target: 5-hydroxytryptamine receptor 2A (Mus musculus, UniProt P35363); format: functional, cell-based;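 also: CHO-K1 cells with tagged receptor and beta-arrestin; agonist potency measured as compound-induced activation of the receptor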
[3] = target: Neurotensin receptor type 1 (Homo sapiens, UniProt P30989); format: functional;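 also: Image-based confirmatory dose-response assay measuring agonist activity at NTR1; NTR1-expressing U2OS osteosarcoma cells imaged for beta-arrestin GFP spot formation; agonist potency where compounds increase beta-arrestin recruitment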
[4] = cytotoxicity toward MDA-MB-231 breast cancer cells – cell-based, CellTiter-Glo luminescence, cherry-pick, cytotoxicity control for RAD54 inhibitor project, dose response (AID 651692); format: functional
[5] = target: DNA repair and recombination protein RAD54-like (Homo sapiens, UniProt Q92698); experiment: RAD54 Holliday junction migration blockers – biochemical, fluorescence, cherry-picked samples, dose series, confirmation (AID 651657); format: functional
Hexokinase HKDC1 = target: T1, Hexokinase HKDC1 (Homo sapiens, UniProt Q2TB90); experiment: inhibition of HKDC1 glucose phosphorylation – biochemical, W721R variant, dose response (AID 504729); format: functional
T1 sequence (Q2TB90 whole entry): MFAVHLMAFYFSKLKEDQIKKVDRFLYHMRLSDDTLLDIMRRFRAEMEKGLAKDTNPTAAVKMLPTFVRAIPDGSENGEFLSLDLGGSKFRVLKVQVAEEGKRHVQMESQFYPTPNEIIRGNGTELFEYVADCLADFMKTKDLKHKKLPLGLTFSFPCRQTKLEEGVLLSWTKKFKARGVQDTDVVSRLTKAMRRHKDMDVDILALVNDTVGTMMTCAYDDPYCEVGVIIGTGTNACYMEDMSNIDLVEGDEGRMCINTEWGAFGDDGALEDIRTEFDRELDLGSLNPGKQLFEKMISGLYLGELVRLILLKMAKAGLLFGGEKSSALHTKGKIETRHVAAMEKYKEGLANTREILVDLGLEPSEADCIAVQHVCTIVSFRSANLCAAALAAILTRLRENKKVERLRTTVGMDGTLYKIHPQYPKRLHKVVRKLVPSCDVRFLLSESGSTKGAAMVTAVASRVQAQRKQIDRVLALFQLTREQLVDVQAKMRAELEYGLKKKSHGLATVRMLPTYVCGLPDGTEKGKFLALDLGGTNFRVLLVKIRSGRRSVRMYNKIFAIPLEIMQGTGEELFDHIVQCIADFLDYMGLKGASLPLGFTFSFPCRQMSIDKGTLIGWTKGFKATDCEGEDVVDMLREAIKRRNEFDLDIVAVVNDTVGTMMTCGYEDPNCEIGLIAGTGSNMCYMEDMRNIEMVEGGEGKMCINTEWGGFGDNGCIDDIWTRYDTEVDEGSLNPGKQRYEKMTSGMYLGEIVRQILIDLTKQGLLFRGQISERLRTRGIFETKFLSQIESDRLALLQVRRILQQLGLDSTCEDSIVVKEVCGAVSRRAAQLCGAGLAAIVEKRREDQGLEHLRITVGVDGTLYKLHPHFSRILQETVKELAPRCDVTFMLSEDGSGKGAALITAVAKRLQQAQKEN

[6] = target: DNA (cytosine-5)-methyltransferase 1 (Homo sapiens, UniProt P26358); experiment: inhibition of DNA methylation by DNMT1 – biochemical, fluorescent molecular beacon, confirmation (AID 602386); format: functional
[7] = target: T2, Small ubiquitin-related modifier 1 (Homo sapiens, UniProt P63165); experiment: SUMO1 protein interaction blockers, potency – biochemical, fluorescence polarization, uHTS hits, dose response (AID 624382); format: functional; conditions: read-out: IC50_Mean
[8] = target: T2, Small ubiquitin-related modifier 1; experiment: SUMO1 protein-protein binding blockers, potency – biochemical, FRET, dose response (AID 624383); format: functional; conditions: read-out: IC50_Mean
[9] = target: Nuclear receptor subfamily 5 group A member 2 (Homo sapiens, UniProt O00482); format: functional, cell-based;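 also: HEK293T cells transfected with LRH-1 and a StAR promoter luciferase reporter; potency for inhibitors that lower LRH-1 driven reporter light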
Steroidogenic factor 1 = Steroidogenic factor 1 (Homo sapiens, UniProt Q13285); experiment: Counterscreen for inverse agonists of the liver receptor homolog-1 (LRH-1; NR5A2): Luminescence-based cell-based high throughput dose response assay to identify inverse agonists of the Steroidogenic Factor 1 Nuclear Receptor (SF1; NR5A1).; format: functional
[10] = nonselective StAR promoter luciferase inhibitors – cell-based, luminescence, luciferase reporter, counter-screen for LRH-1 inverse agonist project, dose response (AID 651969); format: functional
Nonstructural protein 1 = Nonstructural protein 1 (Influenza A virus, UniProt Q194T2); format: functional, Influenza A virus (A/California/07/2009(H1N1))
[11] = NIH3T3 cell viability loss, ATP content – CellTiter-Glo luminescence, cherry-pick, set 2, cytotoxicity control for HSP40 inhibitor project, dose response (AID 624265); format: functional
[12] = target: T3, Histone-lysine N-methyltransferase NSD2 (Homo sapiens, UniProt O96028); format: biochemical
T3 sequence (O96028 whole entry): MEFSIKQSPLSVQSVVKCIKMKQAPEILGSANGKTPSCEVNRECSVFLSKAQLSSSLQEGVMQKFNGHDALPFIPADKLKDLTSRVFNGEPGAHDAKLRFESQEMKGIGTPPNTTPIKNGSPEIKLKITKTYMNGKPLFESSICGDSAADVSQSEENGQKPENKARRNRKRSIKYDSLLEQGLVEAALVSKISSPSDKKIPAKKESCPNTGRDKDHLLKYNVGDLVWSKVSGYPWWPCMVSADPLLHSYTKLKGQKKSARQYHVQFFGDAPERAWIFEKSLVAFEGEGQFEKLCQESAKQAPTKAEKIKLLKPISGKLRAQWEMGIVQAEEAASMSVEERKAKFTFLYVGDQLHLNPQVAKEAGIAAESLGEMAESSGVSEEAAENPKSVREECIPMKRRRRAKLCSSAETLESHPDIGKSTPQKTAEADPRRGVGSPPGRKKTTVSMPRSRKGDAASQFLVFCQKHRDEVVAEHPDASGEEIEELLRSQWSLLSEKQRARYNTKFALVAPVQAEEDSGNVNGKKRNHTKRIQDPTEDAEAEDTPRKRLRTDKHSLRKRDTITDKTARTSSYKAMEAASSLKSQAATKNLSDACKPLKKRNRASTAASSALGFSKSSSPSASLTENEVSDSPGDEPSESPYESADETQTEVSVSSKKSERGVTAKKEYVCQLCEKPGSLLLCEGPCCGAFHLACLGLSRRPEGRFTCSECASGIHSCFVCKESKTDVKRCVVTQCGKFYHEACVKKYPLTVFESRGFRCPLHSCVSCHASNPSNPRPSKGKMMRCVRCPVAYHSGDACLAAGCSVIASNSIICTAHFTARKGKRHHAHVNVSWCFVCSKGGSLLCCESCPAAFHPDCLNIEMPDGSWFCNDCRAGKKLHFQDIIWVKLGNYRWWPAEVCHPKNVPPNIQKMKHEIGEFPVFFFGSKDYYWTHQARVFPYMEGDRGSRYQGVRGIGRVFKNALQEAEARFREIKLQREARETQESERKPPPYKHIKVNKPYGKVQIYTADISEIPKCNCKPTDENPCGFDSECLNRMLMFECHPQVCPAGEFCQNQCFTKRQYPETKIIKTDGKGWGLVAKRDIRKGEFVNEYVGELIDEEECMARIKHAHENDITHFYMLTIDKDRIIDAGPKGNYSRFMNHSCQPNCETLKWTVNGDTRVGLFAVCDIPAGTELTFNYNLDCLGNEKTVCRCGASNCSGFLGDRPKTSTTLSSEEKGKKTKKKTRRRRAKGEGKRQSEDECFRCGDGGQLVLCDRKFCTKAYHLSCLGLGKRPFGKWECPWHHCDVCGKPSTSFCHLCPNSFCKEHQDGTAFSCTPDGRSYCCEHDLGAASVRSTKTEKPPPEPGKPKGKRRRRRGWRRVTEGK

[13] = target: T4, Carboxy-terminal domain RNA polymerase II polypeptide A small phosphatase 1 (Homo sapiens, UniProt Q9GZU7); experiment: CTDSP1 inhibitors, concentration-response, biochemical, absorbance readout, ultra-high-throughput screen actives (AID 540297); format: functional
T4 sequence (Q9GZU7 whole entry): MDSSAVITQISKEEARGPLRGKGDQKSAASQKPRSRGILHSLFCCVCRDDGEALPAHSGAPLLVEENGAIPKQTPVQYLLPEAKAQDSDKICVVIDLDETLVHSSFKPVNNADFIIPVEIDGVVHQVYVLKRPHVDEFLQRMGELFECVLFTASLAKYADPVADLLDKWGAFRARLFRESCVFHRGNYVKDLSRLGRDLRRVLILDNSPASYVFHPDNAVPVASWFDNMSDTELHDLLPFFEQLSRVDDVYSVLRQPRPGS

[14] = target: Tyrosine-protein phosphatase non-receptor type 11 (Homo sapiens, UniProt Q06124); experiment: PTPN11 enzyme inhibitors – biochemical, selectivity assay for STEP inhibitor project, dose response (AID 602367); format: functional; conditions: read-out: IC50_Mean
[15] = target: Tyrosine-protein phosphatase non-receptor type 5 (Homo sapiens, UniProt P54829); experiment: PTPN5 enzyme inhibition – biochemical, fluorescence intensity, uHTS hits, confirmation (AID 602372); format: functional; conditions: read-out: IC50_Mean
[16] = target: Dual specificity protein phosphatase 3 (Homo sapiens, UniProt P51452); experiment: VHR phosphatase inhibition, dose response, selectivity assay for STEP inhibitor project, biochemical (AID 602374); format: functional; conditions: read-out: IC50_Mean
[17] = target: T5, Tyrosine-protein phosphatase non-receptor type 22 (Homo sapiens, UniProt Q9Y2R2); experiment: lymphoid phosphatase LYP inhibitors – biochemical, selectivity assay for STEP inhibitor project, dose response (AID 624241); format: functional
T5 sequence (Q9Y2R2 whole entry): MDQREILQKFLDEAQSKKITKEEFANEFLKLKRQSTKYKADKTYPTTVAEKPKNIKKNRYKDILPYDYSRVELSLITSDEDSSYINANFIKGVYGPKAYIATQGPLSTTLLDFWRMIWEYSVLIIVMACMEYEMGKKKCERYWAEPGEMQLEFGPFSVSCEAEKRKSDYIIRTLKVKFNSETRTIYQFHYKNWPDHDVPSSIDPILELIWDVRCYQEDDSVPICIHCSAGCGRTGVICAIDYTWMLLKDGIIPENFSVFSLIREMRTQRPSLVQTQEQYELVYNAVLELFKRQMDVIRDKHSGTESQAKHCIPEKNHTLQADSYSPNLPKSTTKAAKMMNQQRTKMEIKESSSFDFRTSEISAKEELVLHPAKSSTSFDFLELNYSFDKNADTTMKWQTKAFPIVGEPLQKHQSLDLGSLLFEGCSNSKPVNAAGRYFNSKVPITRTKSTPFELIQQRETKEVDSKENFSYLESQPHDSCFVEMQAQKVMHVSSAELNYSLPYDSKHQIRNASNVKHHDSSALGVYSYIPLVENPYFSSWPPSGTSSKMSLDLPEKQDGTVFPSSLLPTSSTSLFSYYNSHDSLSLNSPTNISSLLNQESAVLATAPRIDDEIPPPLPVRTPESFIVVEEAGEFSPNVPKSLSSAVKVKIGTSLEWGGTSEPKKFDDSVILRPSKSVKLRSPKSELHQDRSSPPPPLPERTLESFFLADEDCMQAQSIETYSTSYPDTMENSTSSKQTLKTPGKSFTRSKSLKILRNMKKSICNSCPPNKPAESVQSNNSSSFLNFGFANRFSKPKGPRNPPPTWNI

[18] = target: T6, Low molecular weight phosphotyrosine protein phosphatase (Homo sapiens, UniProt P24666); format: functional; conditions: read-out: IC50_Mean;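 also: Dose-response confirmation assay measuring inhibition of LMPTP enzyme activity by fluorescence intensity read-out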
T6 sequence (P24666 whole entry): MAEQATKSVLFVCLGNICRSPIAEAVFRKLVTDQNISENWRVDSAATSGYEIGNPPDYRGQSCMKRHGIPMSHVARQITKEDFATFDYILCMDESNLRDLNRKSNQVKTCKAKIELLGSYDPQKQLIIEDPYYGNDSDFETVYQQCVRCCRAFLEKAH

[19] = target: T7, Protein disulfide-isomerase (Homo sapiens, UniProt P07237); experiment: inhibition of PDI-driven insulin aggregation – biochemical, turbidity, absorbance, cherry-picked samples, dose response (AID 602350); format: functional
[20] = target: T7, Protein disulfide-isomerase; experiment: inhibition of PDI-mediated insulin reduction – biochemical, turbidity, absorbance, cherry-picked samples, set 2, dose response (AID 624274); format: functional

T2 sequence (P63165 whole entry): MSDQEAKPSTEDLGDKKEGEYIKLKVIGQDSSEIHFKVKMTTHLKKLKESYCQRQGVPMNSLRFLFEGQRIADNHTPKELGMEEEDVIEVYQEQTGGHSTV
T7 sequence (P07237 whole entry): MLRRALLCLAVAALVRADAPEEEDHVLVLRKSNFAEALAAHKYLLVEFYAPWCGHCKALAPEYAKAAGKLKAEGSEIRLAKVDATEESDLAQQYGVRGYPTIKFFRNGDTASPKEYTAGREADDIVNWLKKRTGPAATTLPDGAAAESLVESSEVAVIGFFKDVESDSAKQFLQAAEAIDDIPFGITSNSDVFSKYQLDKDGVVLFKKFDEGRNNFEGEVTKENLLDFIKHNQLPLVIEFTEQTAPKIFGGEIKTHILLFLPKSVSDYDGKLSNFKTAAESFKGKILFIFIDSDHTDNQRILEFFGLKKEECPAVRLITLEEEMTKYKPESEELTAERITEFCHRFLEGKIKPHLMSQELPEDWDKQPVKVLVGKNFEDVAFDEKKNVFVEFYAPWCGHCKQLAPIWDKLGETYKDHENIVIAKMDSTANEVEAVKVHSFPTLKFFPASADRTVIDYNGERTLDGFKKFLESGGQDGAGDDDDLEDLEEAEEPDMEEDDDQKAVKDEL
Steroidogenic factor 1, sequence (Q13285 whole entry): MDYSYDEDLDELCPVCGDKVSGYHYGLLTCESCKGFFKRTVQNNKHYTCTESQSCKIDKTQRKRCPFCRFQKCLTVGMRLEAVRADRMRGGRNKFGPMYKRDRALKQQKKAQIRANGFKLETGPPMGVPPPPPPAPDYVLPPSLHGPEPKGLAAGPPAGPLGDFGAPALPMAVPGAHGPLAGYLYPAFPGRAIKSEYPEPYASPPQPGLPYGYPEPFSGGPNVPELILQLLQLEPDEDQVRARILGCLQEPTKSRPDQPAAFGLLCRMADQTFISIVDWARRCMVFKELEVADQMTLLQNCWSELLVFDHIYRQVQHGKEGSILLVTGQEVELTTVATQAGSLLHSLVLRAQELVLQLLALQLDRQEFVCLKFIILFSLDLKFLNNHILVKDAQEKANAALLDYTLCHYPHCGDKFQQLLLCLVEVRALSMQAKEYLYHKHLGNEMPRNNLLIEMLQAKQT
DNA (cytosine-5)-methyltransferase 1, sequence (P26358 whole entry): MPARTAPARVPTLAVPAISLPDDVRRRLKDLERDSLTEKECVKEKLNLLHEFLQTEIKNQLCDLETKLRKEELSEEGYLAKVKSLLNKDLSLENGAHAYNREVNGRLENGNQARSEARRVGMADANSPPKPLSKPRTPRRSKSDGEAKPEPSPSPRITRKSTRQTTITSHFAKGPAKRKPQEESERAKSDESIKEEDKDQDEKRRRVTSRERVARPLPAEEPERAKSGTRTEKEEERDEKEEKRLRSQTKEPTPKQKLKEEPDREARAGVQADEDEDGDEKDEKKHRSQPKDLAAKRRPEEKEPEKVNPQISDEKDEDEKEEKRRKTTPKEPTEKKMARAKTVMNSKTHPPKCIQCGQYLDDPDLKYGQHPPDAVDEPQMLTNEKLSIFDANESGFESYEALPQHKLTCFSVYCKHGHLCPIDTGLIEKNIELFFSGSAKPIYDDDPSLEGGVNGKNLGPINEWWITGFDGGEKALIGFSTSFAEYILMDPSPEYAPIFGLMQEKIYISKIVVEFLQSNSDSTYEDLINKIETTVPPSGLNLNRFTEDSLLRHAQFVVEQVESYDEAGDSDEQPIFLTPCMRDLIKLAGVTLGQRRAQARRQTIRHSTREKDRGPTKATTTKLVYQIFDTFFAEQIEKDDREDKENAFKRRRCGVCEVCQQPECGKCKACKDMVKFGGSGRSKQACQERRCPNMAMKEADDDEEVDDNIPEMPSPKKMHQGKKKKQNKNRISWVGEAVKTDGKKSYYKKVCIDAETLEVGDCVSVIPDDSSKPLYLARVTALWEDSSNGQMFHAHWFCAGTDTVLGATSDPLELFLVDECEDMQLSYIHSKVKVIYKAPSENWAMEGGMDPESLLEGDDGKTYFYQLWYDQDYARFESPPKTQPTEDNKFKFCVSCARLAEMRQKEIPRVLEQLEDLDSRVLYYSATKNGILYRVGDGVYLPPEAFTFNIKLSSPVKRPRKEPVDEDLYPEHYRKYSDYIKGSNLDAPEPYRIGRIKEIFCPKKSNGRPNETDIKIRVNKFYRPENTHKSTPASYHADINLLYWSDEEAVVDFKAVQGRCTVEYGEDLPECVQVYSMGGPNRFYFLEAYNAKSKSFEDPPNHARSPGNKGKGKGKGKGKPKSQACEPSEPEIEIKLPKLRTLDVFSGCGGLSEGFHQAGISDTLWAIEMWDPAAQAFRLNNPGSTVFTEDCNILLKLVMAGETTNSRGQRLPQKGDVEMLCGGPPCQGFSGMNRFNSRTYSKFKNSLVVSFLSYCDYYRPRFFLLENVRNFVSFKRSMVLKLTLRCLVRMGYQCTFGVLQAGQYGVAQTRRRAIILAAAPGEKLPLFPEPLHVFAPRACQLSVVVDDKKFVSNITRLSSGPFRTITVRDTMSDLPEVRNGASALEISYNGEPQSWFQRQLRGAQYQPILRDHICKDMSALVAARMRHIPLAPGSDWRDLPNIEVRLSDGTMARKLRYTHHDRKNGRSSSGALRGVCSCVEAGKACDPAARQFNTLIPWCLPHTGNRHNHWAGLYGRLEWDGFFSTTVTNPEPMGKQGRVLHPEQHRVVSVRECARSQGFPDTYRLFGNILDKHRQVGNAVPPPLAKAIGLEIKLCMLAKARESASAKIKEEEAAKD
Nonstructural protein 1, sequence (Q194T2 whole entry): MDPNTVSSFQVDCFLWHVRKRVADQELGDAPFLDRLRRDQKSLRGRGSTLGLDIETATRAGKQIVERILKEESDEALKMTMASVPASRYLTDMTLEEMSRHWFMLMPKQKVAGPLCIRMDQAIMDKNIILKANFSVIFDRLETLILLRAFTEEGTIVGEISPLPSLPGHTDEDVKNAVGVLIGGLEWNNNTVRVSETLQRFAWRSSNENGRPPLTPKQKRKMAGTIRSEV
ADP-ribosylation factor GTPase-activating protein 1, sequence (Q62848 whole entry): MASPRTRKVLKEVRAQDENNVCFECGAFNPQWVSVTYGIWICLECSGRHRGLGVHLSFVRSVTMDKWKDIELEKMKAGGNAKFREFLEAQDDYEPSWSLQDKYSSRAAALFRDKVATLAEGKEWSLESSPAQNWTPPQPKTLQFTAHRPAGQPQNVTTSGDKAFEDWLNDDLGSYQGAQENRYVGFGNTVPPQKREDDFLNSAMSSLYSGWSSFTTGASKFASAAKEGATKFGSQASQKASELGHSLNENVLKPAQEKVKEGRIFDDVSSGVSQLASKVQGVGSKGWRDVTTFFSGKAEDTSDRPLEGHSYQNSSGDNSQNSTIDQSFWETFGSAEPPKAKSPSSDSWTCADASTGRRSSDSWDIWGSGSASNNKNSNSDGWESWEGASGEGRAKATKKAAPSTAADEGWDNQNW
Nuclear receptor subfamily 5 group A member 2, sequence (O00482 whole entry): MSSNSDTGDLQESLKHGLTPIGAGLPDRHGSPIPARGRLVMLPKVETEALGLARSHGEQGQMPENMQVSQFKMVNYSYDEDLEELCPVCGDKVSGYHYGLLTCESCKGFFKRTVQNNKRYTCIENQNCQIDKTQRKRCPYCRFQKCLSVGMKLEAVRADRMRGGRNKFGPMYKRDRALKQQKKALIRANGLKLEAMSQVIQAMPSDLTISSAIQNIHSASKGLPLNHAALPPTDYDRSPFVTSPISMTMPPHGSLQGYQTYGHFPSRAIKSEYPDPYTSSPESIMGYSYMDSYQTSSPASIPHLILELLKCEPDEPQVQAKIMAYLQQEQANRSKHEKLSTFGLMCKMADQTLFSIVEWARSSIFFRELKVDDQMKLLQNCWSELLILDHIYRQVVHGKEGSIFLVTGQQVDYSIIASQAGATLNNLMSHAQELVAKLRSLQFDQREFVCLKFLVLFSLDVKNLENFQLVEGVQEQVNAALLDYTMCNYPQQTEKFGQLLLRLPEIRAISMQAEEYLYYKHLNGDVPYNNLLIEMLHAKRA
Tyrosine-protein phosphatase non-receptor type 5, sequence (P54829 whole entry): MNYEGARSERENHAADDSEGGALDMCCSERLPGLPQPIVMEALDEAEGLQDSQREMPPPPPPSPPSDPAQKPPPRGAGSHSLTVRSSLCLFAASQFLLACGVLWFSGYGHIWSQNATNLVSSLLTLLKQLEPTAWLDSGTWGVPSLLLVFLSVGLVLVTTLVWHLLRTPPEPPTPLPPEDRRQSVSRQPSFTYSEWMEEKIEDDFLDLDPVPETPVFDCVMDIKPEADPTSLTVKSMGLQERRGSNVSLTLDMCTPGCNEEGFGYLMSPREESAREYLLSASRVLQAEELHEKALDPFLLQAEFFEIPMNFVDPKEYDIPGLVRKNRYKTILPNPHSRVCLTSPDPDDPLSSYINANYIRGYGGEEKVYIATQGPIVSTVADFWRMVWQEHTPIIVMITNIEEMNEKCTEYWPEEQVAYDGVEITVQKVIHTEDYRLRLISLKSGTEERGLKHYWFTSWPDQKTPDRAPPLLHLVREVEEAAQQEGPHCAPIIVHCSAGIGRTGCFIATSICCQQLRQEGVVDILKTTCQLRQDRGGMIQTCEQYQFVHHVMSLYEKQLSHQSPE
Dual specificity protein phosphatase 3, sequence (P51452 whole entry): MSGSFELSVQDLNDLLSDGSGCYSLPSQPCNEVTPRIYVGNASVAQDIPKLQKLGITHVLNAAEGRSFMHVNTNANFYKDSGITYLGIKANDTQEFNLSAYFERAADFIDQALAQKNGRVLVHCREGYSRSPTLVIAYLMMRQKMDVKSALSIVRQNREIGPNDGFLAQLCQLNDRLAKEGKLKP

Compound: COc1ccc(-n2c(SCC(N)=O)nc3sc4c(c3c2=O)CCN(C)C4)cc1
- IC50 [1]: 111 µM (inactive)

Compound: COc1ccc(CN2CCN(c3ncccn3)CC2)c(OC)c1
- EC50 (Mu-type opioid receptor): 92.5 µM (inactive)
- EC50 [2]: 0.322 µM (active)

Compound: CCOC(=O)c1c(NC(C)=O)sc2c(OCC(O)CN(CC)CC)c(Br)ccc12 (centres undefined)
- EC50 [3]: 22.6 µM (inactive)
- AC50 [4]: 24.6 µM (active)
- AC50 [5]: 8.3 µM (active)

Compound: O=C(/C=C/c1ccc(Br)cc1)NC(=S)Nc1ccc(S(=O)(=O)Nc2nccs2)cc1
- IC50 (Hexokinase HKDC1): 17.3 µM (active)
- IC50 [6]: 5.22 µM (active)
- IC50 [7]: > 66.6 µM (inactive)
- IC50 [8]: 3.39 µM (active)

Compound: CCOc1ccc(NC(=O)CN2CCN(CC(=O)Nc3ccc(OC)cc3)CC2)cc1
- IC50 [9]: 18.1 µM (inactive)
- IC50 (Steroidogenic factor 1): 3.07 µM (active)
- IC50 [10]: 35.9 µM (inactive)

Compound: O=C1c2cccc(Cl)c2C(=O)c2c1cccc2N1CCCC1
- IC50 (Nonstructural protein 1): 8.7 µM (active)
- AbsAC35_uM [11]: 61.52 µM
- AC50 [12]: 2.51 µM (active)

Compound: NC(=O)c1cc2ccccc2o/c1=N\NC(=O)c1ccccc1O
- IC50 [13]: 7.89 µM (active)
- IC50 [14]: 5.39 µM (active)
- IC50 [15]: 6.57 µM (active)
- IC50 [16]: 1.93 µM (active)
- IC50 [17]: 90.7 µM (inactive)
- IC50 [18]: 24.2 µM (inactive)

Compound: COc1cccc(/C=N/NC(=O)CNC(=O)c2ccc3c(c2)OCCO3)c1O
- AC50 [19]: < 0.009 µM (active)
- AC50 [20]: 0.009 µM (active)
